# Columns and labels:
# [1] = test system: Capra sp.; conditions: subchronic; duration: 56 days; food consumption
# [2] = test system: Equus caballus
# [3] = test system: Oryctolagus sp.
# [4] = test system: Ovis sp.; conditions: subchronic; duration: 3 months; oral; diet; food consumption
# [5] = test system: Sus scrofa; conditions: subchronic; oral; diet; Not specified; growth
# [6] = test system: Gallus gallus; conditions: subchronic, duration: 35 days, oral, diet
# [7] = test system: Macromiidae; conditions: acute; duration: 72 hours; growth
# [8] = test system: Pontoscolex corethrurus
# [9] = test system: Bibionidae; conditions: chronic/long-term
# [10] = test system: Canidae; conditions: oral, Dog Other
# [11] = test system: Cyprinodon variegatus; conditions: acute; duration: 96 hours
# [12] = test system: Daphnia magna; conditions: chronic/long-term; duration: 21 days
# [13] = test system: Lepomis macrochirus; conditions: acute, duration: 96 hours
# [14] = test system: Oncorhynchus mykiss; conditions: for NOEC: chronic/long-term; for LC50: acute, duration: 96 hours, mortality
# [15] = test system: Rattus norvegicus; conditions: for LD50: acute, mortality
# [16] = test system: Anas platyrhynchos; conditions: oral
# [17] = test system: Bovidae; conditions: oral; for LEL: diet, M/F, no effects
# [18] = test system: Lolium perenne; conditions: acute; growth
# [19] = test system: Meleagris sp.; conditions: no effects
# [20] = test system: Mus musculus; conditions: chronic; duration: 2 years; M/F; B6C3F1; body weight
# [21] = test system: Tagia sp.
# [22] = test system: Homo sapiens; conditions: clinical; ophthalmoscopic examination
# [23] = test system: Apis mellifera; conditions: acute, duration: 48 hours, mortality
# [24] = test system: Pimephales promelas; conditions: acute; duration: 96 hours; mortality
# [25] = test system: Danio rerio; conditions: acute; duration: 96 hours; mortality
# [26] = test system: Typhlodromus pyri; assay: LR50; higher = less toxic; conditions: not reported; mortality
# [27] = test system: Anatidae; conditions: subchronic; duration: 41 days; oral; feed; M/F; no effects
# [28] = reproduction developmental, no effects
smiles,measurement,setting,value
Cn1cnc2c1c(=O)[nH]c(=O)n2C [Theobromine],LEL,[1],300 mg/kg-day
same,LEL,"[2]; acute, no effects",0.5 mg/kg
same,NOAEL,"[3]; developmental, development",21 mg/kg-day
same,NOAEL,[4],35 mg/kg-day
same,NOAEL,[5],7 mg/kg-day
O=C([O-])CC[C@@H](C(=O)[O-])N(CC(=O)[O-])CC(=O)[O-].[Na+].[Na+].[Na+].[Na+] [Tetrasodium glutamate diacetate],LEL,"[6]; M, Chicken, body weight",10000 mg/kg-day
same,NOEC,[7],1 mg/L
same,NOAEL,"[3]; reproduction developmental, duration: 21 days, oral, gavage, F, New Zealand, clinical signs",20 mg/kg-day
same,NOEC,"[8]; reproductive, no effects",248 mg/kg
CCOP(=O)(NC(C)C)Oc1ccc(SC)c(C)c1 (stereo not drawn) [Fenamiphos],NOEC,[9]; duration: 28 days,1.31 µg/L
same,NOAEL,"[10]; acute, neurology",0.25 mg/kg-day
same,NOAEL,"[10]; chronic, duration: 1 years, neurology",0.083 mg/kg-day
same,LC50,[11],17 µg/L
same,NOEC,[12],0.00012 mg/L
same,LC50,[13],9.3 µg/L
same,NOEC,[14]; duration: 91 days,3.8 µg/L
same,LD50,[15],6 mg/kg-day
CC[C@@]1([C@@H]2O[C@@H]([C@H]3O[C@@](O)(CO)[C@H](C)C[C@@H]3C)C[C@@H]2C)CC[C@H]([C@]2(C)CC[C@]3(C[C@H](O)[C@@H](C)[C@@H]([C@@H](C)[C@@H](OC)[C@H](C)C(=O)[O-])O3)O2)O1.[Na+] [Monensin sodium],NOEL,"[16]; short-term, duration: 8 days, feed, body weight",62 mg/kg
same,LEL,"[17]; chronic, duration: 160 days",110 mg/kg-day
same,LEL,"[17]; short-term, duration: 28 days",4.5 mg/kg-day
same,NOEL,"[10]; repeat dose other, clinical signs",0.345 mg/kg-day
same,LD50,"[2]; acute, oral, gavage, mortality",1.38 mg/kg
same,LEL,"[6]; M/F, no effects",125 mg/kg-day
same,NOEC,[18],2 mg/kg
same,LEL,"[19]; subchronic, duration: 84 days, oral, feed, M/F",100 mg/kg
same,NOEL,[20],1.2 mg/kg-day
same,LC50,[14],1.88 mg/L
same,NOEC,"[14]; duration: 50 days, development",50 µg/L
same,NOAEL,[3]; reproduction developmental,0.3 mg/kg-day
same,NOEL,"[3]; reproduction developmental, duration: 23 days, oral, gavage, F, body weight",0.3 mg/kg-day
same,NOEC,"[21]; chronic/long-term, duration: 56 days, reproduction",50 mg/kg
CC1=C(/C=C/C(C)=C/C=C/C(C)=C/C=C/C=C(C)/C=C/C=C(C)/C=C/C2=C(C)C(=O)CCC2(C)C)C(C)(C)CCC1=O [Canthaxanthin],NOAEL,[22],0.25 mg/kg-day
CCCCCCCCCCO [1-Decanol],LD50,"[16]; acute, unspecified, mortality",> 4640 mg/kg-day
same,LC50,"[16]; short-term, feed, mortality",> 2550 mg/kg-day
same,LD50,[23]; dermal,> 13.8 µg/piece
same,NOEC,[12],0.51 mg/L
same,NOEC,"[14]; duration: 28 days, growth",6.4 µg/L
same,LC50,[24],2.4 mg/L
same,LD50,[15]; oral,4720 mg/kg-day
same,NOAEL,[15]; [28],1000 mg/kg-day
same,LC50,"[21]; acute, duration: 14 days, mortality",> 628 mg/kg
CC(C)[C@@H](C)[C@@H](O)[C@H](O)[C@@H](C)[C@H]1CC[C@H]2[C@@H]3COC(=O)[C@H]4C[C@H](O)[C@H](O)C[C@]4(C)[C@H]3CC[C@]12C,LD50,[23]; dermal,> 10 µg/piece
same,LD50,"[23]; oral, unspecified",> 92.2 µg/piece
same,LC50,[25],> 5 mg/L
same,LD50,[15]; oral,> 5000 mg/kg-day
same,NOEL,[15]; [28],≥ 1000 mg/kg-day
same,LR50,[26],0.28 g/ha
Cc1cc(C2CC2)nc(Nc2ccccc2)n1 [Cyprodinil],NOEC,[9]; duration: 27 days,80 mg/kg
same,NOEC,[9]; duration: 28 days,240 µg/L
same,NOEC,[12],0.0018 mg/L
same,LC50,[13]; mortality,2170 µg/L
same,LC50,[14],1.35 mg/L
same,NOEC,[14]; duration: 21 days,83 µg/L
CC[C@@H](C(=O)O)[C@@H]1O[C@@H]([C@@H](C)[C@H](O)[C@H](C)C(=O)[C@H](CC)[C@H]2O[C@]3(C=C[C@@H](O)[C@]4(CC[C@@](C)([C@H]5CC[C@](O)(CC)[C@H](C)O5)O4)O3)[C@H](C)C[C@@H]2C)[C@@H](C)C[C@@H]1C [Narasin],LEL,[27],280 mg/kg
same,NOEL,"[17]; short-term, duration: 14 days, gavage, F, clinical signs",0.5 mg/kg-day
same,NOAEL,"[10]; chronic, duration: 1 years, capsule, M/F, histopathology: nonneoplastic",0.5 mg/kg-day
same,LEL,"[2]; short-term, duration: 1 months, oral, feed, M/F, food consumption",80 mg/kg
same,LC50,[14],2.23 mg/L
same,LEL,"[3]; acute, Hungarian, clinical signs",≥ 35 mg/kg-day
same,NOEC,"[8]; acute, duration: 7 days, body weight",4.3 mg/kg
O=[N+]([O-])c1ccc([As](=O)(O)O)cc1 [Nitarsone],LEL,"[10]; subchronic, duration: 90 days, diet, no effects",37.5 mg/kg-day
same,LEL,[19]; not reported,750 mg/kg
same,NOEL,"[15]; chronic, duration: 2 years, oral, diet, M/F, Long-Evans, histopathology: nonneoplastic",2 mg/kg-day

# Source: EPA's ToxValDB 9.5
